Like-named read-outs stand apart in the source and are kept apart here. Some results are limits rather than exact numbers.

The test system of one assay is BTK C481S in TMD8 cells. As to conditions: IC50 measured in TMD8 cells (not in vitro); read-out: average published IC50 for BTK C481S; cited from earlier work.
Assay [1] concerns the target T1, BTK C481S (Homo sapiens, UniProt Q06187, C481S).
T1 construct: made in house; host or cells: transiently transfected HEK293 cells (unpurified extract)
The experiment in a line: KdELECT competition binding, mutant BTK C481S. Here is the method: Protein extracts were harvested in M-PER extraction buffer (Pierce Biotechnology, Rockford, IL) supplemented with 150 mM NaCl, 10 mM Dithiothreitol (DTT), Protease Inhibitor Cocktail Complete (Roche Diagnostics GmbH, Mannheim, Germany), and Phosphatase Inhibitor Cocktail Set II (Merck KGaA, Darmstadt, Germany) following the manufacturer’s guidelines. The fusion protein was labeled with a DNA tag containing the NFκB binding site fused to an amplicon for qPCR readout, which was added directly to the expression extract.
Kds were calculated using a standard dose–response curve fitting of the data using the Hill equation: Response = Background + (Signal – Background)/(1 + (Kd ^Hill Slope/Dose^Hill Slope). The Hill Slope was set to −1. A nonlinear least-square fit using the Levenberg–Marquardt algorithm was employed for curve fitting.

For the next assay, the target named is T2, BMX (Homo sapiens, UniProt P51813).
T2 sequence (P51813 1-675): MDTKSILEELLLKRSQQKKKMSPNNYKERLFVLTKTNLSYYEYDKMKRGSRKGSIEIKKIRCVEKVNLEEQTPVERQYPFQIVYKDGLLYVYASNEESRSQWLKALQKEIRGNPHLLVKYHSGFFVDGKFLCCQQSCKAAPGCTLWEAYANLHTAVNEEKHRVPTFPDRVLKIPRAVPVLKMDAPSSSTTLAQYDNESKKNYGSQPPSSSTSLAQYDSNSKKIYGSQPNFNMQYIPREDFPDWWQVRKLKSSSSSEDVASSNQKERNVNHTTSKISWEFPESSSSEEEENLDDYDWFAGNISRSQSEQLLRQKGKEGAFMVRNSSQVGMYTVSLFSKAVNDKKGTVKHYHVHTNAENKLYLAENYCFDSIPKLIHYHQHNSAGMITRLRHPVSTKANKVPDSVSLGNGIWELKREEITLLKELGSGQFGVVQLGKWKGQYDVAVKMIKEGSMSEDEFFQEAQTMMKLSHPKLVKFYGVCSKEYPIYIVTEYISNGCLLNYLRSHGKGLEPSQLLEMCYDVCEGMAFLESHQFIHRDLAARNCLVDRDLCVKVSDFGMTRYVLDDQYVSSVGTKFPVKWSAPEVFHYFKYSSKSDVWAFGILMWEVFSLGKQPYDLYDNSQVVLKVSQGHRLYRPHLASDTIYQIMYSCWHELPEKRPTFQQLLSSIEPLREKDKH
In words: scanMAX binding POC, BMX. The conditions noted are these: 1 μM. The text has this: Comprehensive Characterization of Bruton’s Tyrosine Kinase Inhibitor Specificity, Potency, and
Biological Effects: Insights into Covalent and Non-Covalent Mechanistic Signatures
Antonia C. Darragh1, Andrew M. Hanna1, Justin H. Lipner2, Alastair J. King2, Nicole B. Servant1, Mirza Jahic1*
*To whom correspondence should be addressed: Mirza Jahic, e-mail address: Mirza.Jahic@discovery.eurofinsus.com
Supporting Table S1. Comparison of BTK inhibitor specificity to TEC family members. TEC family members are
Burton’s tyrosine kinase (BTK), tyrosine kinase expressed in hepatocellular carcinoma (TEC), bone marrow-
expressed kinase (BMX/ETK), and T cell-expressed kinase (TXK/RLK), and interleukin-2-inducible T cell kinase
A zero POC signifies that the compound

Assay [2] concerns the target BTK C481S. As to conditions: average of literature values; read-out: average published Kd for BTK C481S; cited from earlier work.
Assay [3] deals with BTK C481S. As to conditions: literature values; read-out: average published IC50 for BTK C481S; cited from earlier work.
Setting [4] is: ATP-independent in vitro binding, 25 °C, read-out: Kd for BTK C481S.
Setting [5] is: N = 1, technical duplicate, read-out: average in-house Kd for BTK C481S.
Setting [6] is: category by Kd for BTK C481S, read-out: potency for BTK C481S.

T1 sequence (Q06187 whole entry C481S): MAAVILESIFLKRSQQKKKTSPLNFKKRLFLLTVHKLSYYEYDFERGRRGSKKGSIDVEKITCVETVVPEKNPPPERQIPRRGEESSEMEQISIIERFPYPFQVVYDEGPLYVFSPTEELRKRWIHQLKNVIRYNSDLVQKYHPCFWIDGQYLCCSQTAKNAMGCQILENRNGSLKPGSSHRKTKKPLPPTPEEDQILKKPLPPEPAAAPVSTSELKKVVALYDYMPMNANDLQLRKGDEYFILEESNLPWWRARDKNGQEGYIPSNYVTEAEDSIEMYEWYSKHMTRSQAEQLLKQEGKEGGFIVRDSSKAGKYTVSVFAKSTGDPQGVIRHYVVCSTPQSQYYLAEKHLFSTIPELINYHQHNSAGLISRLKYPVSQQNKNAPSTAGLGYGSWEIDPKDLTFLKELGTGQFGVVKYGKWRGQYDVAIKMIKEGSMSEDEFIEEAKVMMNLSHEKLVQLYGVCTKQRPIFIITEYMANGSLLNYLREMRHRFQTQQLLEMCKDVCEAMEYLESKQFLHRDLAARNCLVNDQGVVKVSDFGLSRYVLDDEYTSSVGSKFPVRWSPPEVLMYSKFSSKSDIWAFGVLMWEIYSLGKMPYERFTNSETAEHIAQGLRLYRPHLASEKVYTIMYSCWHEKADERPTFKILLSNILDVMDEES

As to `COc1ccc(F)cc1C(=O)NCc1ccc(-c2nn([C@@H](C)C(F)(F)F)c(N)c2C(N)=O)cc1` [Pirtobrutinib], the IC50 in the assay with BTK C481S in TMD8 cells is 4 nM. Moreover, the Kd on BTK C481S [1] (setting [4]) was 0.89 nM; on BTK C481S [1] (setting [5]), 0.89 nM; at BTK C481S [1] (setting [6]), below 1 nM; on BTK C481S [2] it was 2.6 nM. Further, the “fold difference between in-house and published Kd” value on BTK C481S [1] (BTK C481S) came out at 2.9 fold. In addition, the “BMX binding POC” value at BMX is given as 51% of control.

Regarding `C=CC(=O)Nc1cccc(Nc2nc(Nc3ccc(OCCOC)cc3)ncc2F)c1` [Spebrutinib], the “BMX binding POC” value at BMX was 10% of control.

For `O=C(c1ccc(Oc2ccccc2)cc1Cl)c1c[nH]c2ncnc(N[C@@H]3CC[C@@H](CO)OC3)c12` [Nemtabrutinib], the IC50 in the assay on BTK C481S [3] is 0.39 nM. The “BMX binding POC” value at BMX is on record as 8.5% of control.

As for `C=CC(=O)N1CCC[C@@H](c2ccc(C(N)=O)c3[nH]ccc23)C1` [Elsubrutinib], the Kd at BTK C481S [1] (setting [4]) was 460 nM; on BTK C481S [1] (setting [5]) it was 460 nM; at BTK C481S [1] (setting [6]), 100 to 1000 nM. Also, the “BMX binding POC” value at BMX is 20% of control.

Regarding `C[C@H]1CN(C2COC2)CCN1c1ccc(Nc2cc(-c3ccnc(N4CCn5c(cc6c5CC(C)(C)C6)C4=O)c3CO)cn(C)c2=O)nc1` [Fenebrutinib], in the assay on BTK C481S in TMD8 cells, the IC50 is 7.8 nM.

Consider `C=CC(=O)Nc1cccc(Oc2nc(Nc3ccc(N4CCN(C)CC4)cc3)nc3ccoc23)c1` [Poseltinib], for which, at BTK C481S [1] (ATP-independent in vitro binding, 25 °C), the “Kd for BTK C481S” value is “did not demonstrate any binding at the concentrations tested”. The Kd on BTK C481S [1] (setting [4]), at BTK C481S [1] (setting [5]) and at BTK C481S [1] (setting [6]) was above 1000 nM each time. Moreover, the “BMX binding POC” value on BMX was 12% of control.

Usually IC50 stands for the midpoint of a concentration-inhibition curve.

Source of the values: publication PMC11997881, “Comprehensive Characterization of Bruton’s Tyrosine Kinase Inhibitor Specificity, Potency, and Biological Effects: Insights into Covalent and Noncovalent Mechanistic Signatures” (ACS Pharmacology & Translational Science, 2025).
